Where two headings read alike, the source gives them in different places.
Assays:
[1] = test system: NMDA-induced hyperalgesia; experiment: hyperalgesia induced by intrathecal NMDA; type: in vivo, rat; details: IT NMDA 0.3 μg; MK801 10 μg, IT SD 3-60 μg, IT SB 1-30 μg, SA 10 μg
Source text: Male Sprague-Dawley rats (300-350 g) were implanted under isoflurane anesthesia with lumbar polyethylene (PE-10) catheters according to a modified method originally described in Physiol. Behav. 17, 1031 (1976). […] IT saline and 5% DMSO alone had no effect on behavior or protein expression/phosphorylation.

[2] = biological target: T1, p38 MAPK (Homo sapiens, UniProt Q16539); experiment: p38 MAPK phosphorylation assay (similar to Kumar); type: biochemical
T1 construct: expressed in transfected cells; host or cells: HeLa (kinase immunoprecipitated from lysates of transfected, stimulated cells)
Procedure: Alternative assays involving in vitro analysis of potential inhibitors include those where cells (HeLa) transfected with DNA coding for relevant kinases can be activated with substances such as sorbitol, IL-1, TNF, or PMA (phorbol myristate acetate). After immunoprecipitation of cell lysates, equal aliquots of immune complexes of the kinases are pre-incubated for an adequate time with a specific concentration of the potential inhibitor followed by addition of kinase substrate buffer mix containing labeled ATP and GST-ATF2 or MBP. After incubation, kinase reactions are ceased by the addition of SDS loading buffer. Phosphorylated substrate is resolved through SDS-PAGE and visualized and quantitated in a phosphorimager. Both p38 regulation, in terms of phosphorylation, and IC50 values can be determined by quantitation. […] Res. Commun. […]

[3] = test system: mechanical hyperalgesia; experiment: mechanical hyperalgesia, Randall Selitto test, intraplantar carrageenan; type: in vivo, Sprague Dawley Rats
Procedure: The effects of p38 MAP kinase inhibitors on Mechanical and Thermal Hyperalgesia were evaluated as follows. Sprague Dawley Rats were evaluated in carageenan induced models whereby an intraplantar injection of carageenan was made into the left paw. At approximately 2 and 4 hour post carageenan, the left hind limb of each rat was assessed for the development of thermal hyperalgesia relative to a p38 MAP kinase inhibitor (SC), vehicle, indomethacin, and the vehicle for indomethacin. Indomethacin, a known nonsteroidal analgesic, was used as a control reference in this study. Assessment of mechanical and thermal hyperalgesia was accomplished through the use of a Randall Selitto Analgesiometer and the Hargreaves Plantar Device, respectively. Approximately 10 minutes after intraperitoneal dosing, or 30 minutes following oral indomethacin treatment, each animal was lightly anaesthetized (isoflurane in oxygen) and an intraplantar injection of carageenan was made into the left paw. Animals were allowed to recover from anesthesia. Mechanical hyperalgesia was tested using the Randall-Selittlo test. Randall, L. & Selitto, J., Arch Int Pharmacodyn (1957) 110:409-419. The carageenan model was established as set forth above. […] In the same animals treated with SC, the paw withdrawal threshold increased from a pre dose threshold of 159±8 g to 177±17 g, 2 hours post-carrageenan. […] As set forth in Example 2 above, Sprague Dawley rats were evaluated in the intraplantar carageenan model. The animals were administered the p38 MAP kinase inhibitor SA, vehicle, indomethacin, and the vehicle for indomethacin. After dosing, the animals were assessed for the development of mechanical hyperalgesia and thermal hyperalgesia using the Randall Selitto Analgesiometer and the Hargreaves Plantar Device, respectively.

[4] = test system: thermal hyperalgesia; experiment: thermal hyperalgesia, Plantar test (Hargreaves), intraplantar carrageenan; type: in vivo, Sprague Dawley Rats
Procedure: The effects of p38 MAP kinase inhibitors on Mechanical and Thermal Hyperalgesia were evaluated as follows. Sprague Dawley Rats were evaluated in carageenan induced models whereby an intraplantar injection of carageenan was made into the left paw. At approximately 2 and 4 hour post carageenan, the left hind limb of each rat was assessed for the development of thermal hyperalgesia relative to a p38 MAP kinase inhibitor (SC), vehicle, indomethacin, and the vehicle for indomethacin. Indomethacin, a known nonsteroidal analgesic, was used as a control reference in this study. Assessment of mechanical and thermal hyperalgesia was accomplished through the use of a Randall Selitto Analgesiometer and the Hargreaves Plantar Device, respectively. Approximately 10 minutes after intraperitoneal dosing, or 30 minutes following oral indomethacin treatment, each animal was lightly anaesthetized (isoflurane in oxygen) and an intraplantar injection of carageenan was made into the left paw. Animals were allowed to recover from anesthesia. As set forth above in the carageenan model, the effect of SC was evaluated with respect to attenuation of the development of thermal hyperalgesia at either of the 2 and 4 hours post-carrageenan time points tested. As above with respect to mechanical hyperalgesia, observation of statistically significant thermal hyperalgesia development was made at both the 2 and 4 hour periods (8.2±1.5 s; P≦0.05 and 7.0±1.5 s; P≦0.01, respectively), compared to vehicle pre dose measurements (12.7±1.0 s). […] As set forth in Example 2 above, Sprague Dawley rats were evaluated in the intraplantar carageenan model. The animals were administered the p38 MAP kinase inhibitor SA, vehicle, indomethacin, and the vehicle for indomethacin. After dosing, the animals were assessed for the development of mechanical hyperalgesia and thermal hyperalgesia using the Randall Selitto Analgesiometer and the Hargreaves Plantar Device, respectively.

[5] = test system: carrageenan-induced thermal hyperalgesia; experiment: carrageenan-induced thermal hyperalgesia (Hargreaves-type device); type: in vivo, rat; details: intravenous administration, pre injury
Procedure: Hyperalgesia was induced in the rat's right hindpaw by intraplantar injection of carrageenan (2 mg in 0.1 ml of a […] solution (weight/volume) in physiological saline). To assess the thermally evoked paw withdrawal time, a device modeled after that described by Hargreaves (1988) was used. See Hargreaves K, Dubner R, Brown F, Flores C, Joris J. A new and sensitive method for measuring thermal nociception in cutaneous hyperalgesia, Pain, 32, 77-88 (1988). The device consisted of a glass surface on top of which the rats were placed. The glass surface was heated by a focused projection bulb below the glass surface. The first sign of discomfort is usually expressed as an attempt to sit up and lick the forepaws by the experimental animal. This response indicates a threshold of pain under the predetermined conditions. Dancing and jumping about by an undrugged animal is an indicator of unbearable pain; whereas drugged animals more commonly withdraw the hind paws and keep them close to their abdomen. A timer was actuated with the light source and latency defined as the time required for the paw to be withdrawn from the glass surface. See Dirig D M, Isakson P C, and Yaksh T L. J Pharmacol Exp Ther., 285, 1031-8 (1998).

[6] = test system: discomfort of a dental procedure; experiment: pain associated with a dental procedure; type: in vivo; details: approximately 1 hours before the procedure; SF 40 mg/kg, SG 20 mg/kg
Procedure: A subject scheduled for a dental procedure, the filling of a cavity in a tooth, is administered approximately 40 mg/kg of the p38 MAP kinase inhibitor SF approximately 1 hours before the procedure is to begin. No other analgesics or anesthetics are administered.
A subject scheduled for a dental procedure, the filling of a cavity in a tooth, is administered approximately 20 mg/kg of the p38 MAP kinase inhibitor SG approximately 1 hours before the procedure is to begin. No other analgesics or anesthetics are administered.

[7] = test system: post-activity related discomfort; experiment: pain associated with athletic endeavor; type: in vivo; details: before a long distance race; SH 50 mg/kg, SI 20 mg/kg, SM 40 mg/kg
Procedure: A subject preparing for an athletic endeavor, the running of a long distance race, is administered approximately 50 mg/kg of SH approximately 30 minutes before the endeavor is to begin. No other analgesics or anesthetics are administered. The athlete participates in and completes the endeavor.
A subject preparing for an athletic endeavor, the running of a long distance race, is administered approximately 20 mg/kg of SI approximately 1 hours before the endeavor is to begin. No other analgesics or anesthetics are administered. The athlete participates in and completes the endeavor.
A subject preparing for an athletic endeavor, the running of a long distance race, is administered approximately 40 mg/kg of SM approximately 1 hours before the endeavor is to begin. No other analgesics or anesthetics are administered. The athlete participates in and completes the endeavor.

[8] = test system: recovery from the procedure; experiment: adjunct to opioid anesthesia for Cesarean section; type: in vivo; details: in opioid solution, subarachnoid; SL 60 mg/kg, SJ 630 mg/kg, SK 50 mg/kg
Procedure: A person scheduled for a Cesarean section is prepared according to standard guidelines. A subarachnoid block is performed in the sitting position, following the administration of 1-2 liters of crystalloid solution. Skin infiltration with local anaesthetic is performed at the L2-3 or L3-L4 interspace. A spinal needle introducer is used to facilitate insertion of the needle into the patient. The needle is introduced into the epidural space and perforates the dura. The emergence of cerebrospinal fluid indicates proper placement of the needle. An opiod solution containing approximately 60 mg/kg of SL is administered and injected slowly of a ten to fifteen second time interval. […] The needle is then removed and resulting wound is dressed. The Cesarean section proceeds according to a standard protocol.
A person scheduled for a Cesarean section is prepared according to standard guidelines. A subarachnoid block is performed in the sitting position, following the administration of 1-2 liters of crystalloid solution. Skin infiltration with local anaesthetic is performed at the L2-3 or L3-L4 interspace. A spinal needle introducer is used to facilitate insertion of the needle into the patient. The needle is introduced into the epidural space and perforates the dura. The emergence of cerebrospinal fluid indicates proper placement of the needle. An opiod solution containing approximately 630 mg/kg of SJ is administered and injected slowly of a ten to fifteen second time interval. […] The needle is then removed and resulting wound is dressed. The Cesarean section proceeds according to a standard protocol.
A person scheduled for a Cesarean section is prepared according to standard guidelines. A subarachnoid block is performed in the sitting position, following the administration of 1-2 liters of crystalloid solution. Skin infiltration with local anaesthetic is performed at the L2-3 or L3-L4 interspace. A spinal needle introducer is used to facilitate insertion of the needle into the patient. The needle is introduced into the epidural space and perforates the dura. […]

[9] = assay similar to the phosphorylation assay (Kumar), read-out: p38 MAPK activity, relative IC50 value

T1 sequence (Q16539 whole entry): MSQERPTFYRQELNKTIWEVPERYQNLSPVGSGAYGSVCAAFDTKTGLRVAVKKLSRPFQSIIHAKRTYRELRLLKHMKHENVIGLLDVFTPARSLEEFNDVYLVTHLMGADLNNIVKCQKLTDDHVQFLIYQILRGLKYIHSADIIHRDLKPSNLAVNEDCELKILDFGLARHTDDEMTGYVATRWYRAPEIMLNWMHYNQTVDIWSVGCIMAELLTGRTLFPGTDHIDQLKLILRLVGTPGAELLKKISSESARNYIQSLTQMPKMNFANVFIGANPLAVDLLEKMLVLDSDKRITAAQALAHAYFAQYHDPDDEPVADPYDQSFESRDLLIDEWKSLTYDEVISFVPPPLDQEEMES

**Q.** `C[C@]12N[C@H](Cc3ccccc31)c1ccccc12` [MK801] was tested. Which “hyperalgesia induced by IT NMDA” value [1] did it give?
**A.** reversed

**Q.** For `COc1cc2c(cc1C(=O)N1CC(C)C(Cc3ccc(F)cc3)CC1C)c(C(=O)C(=O)N(C)C)cn2C` (stereo not drawn) [SA], which IC50 [2, 9] is on record?
**A.** < 5 nM

**Q.** What about the paw withdrawal threshold ([3]; Example 3, oral, 30 minutes prior to carrageenan, 4 hours) of the same compound?
**A.** 159 ± 19 g

**Q.** And the “attenuation of thermal hyperalgesia” value ([4]; Example 3, oral, lower dose levels)?
**A.** no significant attenuation

**Q.** What about the withdrawal latency ([4]; Example 3, oral, 4 hours) of the same compound?
**A.** 11.1 ± 1.4 s

**Q.** `C[C@@H]1CN(Cc2ccc(F)cc2)[C@@H](C)CN1C(=O)c1cc2c(C(=O)C(=O)N(C)C)cn(C)c2cc1Cl` [SC] was tested. Which paw withdrawal threshold ([3]; Example 2, SC intraperitoneal, 2 hours post-carrageenan) did it give?
**A.** 177 ± 17 g

**Q.** What about the paw withdrawal threshold ([3]; Example 2, SC intraperitoneal, 4 hour post-carrageenan) of the same compound?
**A.** 153 ± 14 g

**Q.** And the withdrawal latency ([4]; Example 2, first of two dose levels (not given), 2 hours)?
**A.** 11.5 ± 1.1 s

**Q.** What about the withdrawal latency ([4]; Example 2, first of two dose levels (not given), 4 hours) of the same compound?
**A.** 10.2 ± 1.5 s

**Q.** What about the withdrawal latency ([4]; Example 2, second of two dose levels (not given), 2 hours) of the same compound?
**A.** 11.6 ± 1.1 s

**Q.** What about the withdrawal latency ([4]; Example 2, second of two dose levels (not given), 4 hours) of the same compound?
**A.** 10.2 ± 0.9 s

**Q.** For `COc1cc2[nH]cc(C(=O)C(=O)N(C)C)c2cc1C(=O)N1CC(C)N(Cc2ccc(F)cc2)CC1C` (stereo not drawn) [SE], which carageenan induced hyperalgesia [5] is on record?
**A.** Attenuation of the carageenan induced hyperalgesia

**Q.** What about the IC50 [2, 9] of the same compound?
**A.** < 5 nM

**Q.** For `COc1cc2c(cc1C(=O)N1CCC(Cc3ccc(F)cc3)CC1)c(C(=O)C(=O)O)cn2C` [SF], which “discomfort during dental procedure” value [6] is on record?
**A.** reduced level of discomfort

**Q.** What about the IC50 [2, 9] of the same compound?
**A.** < 5 nM

**Q.** For `COc1cc2c(cc1C(=O)N1CCC(Cc3ccc(F)cc3)CC1)c(C(=O)C(=O)N1CCN(C)CC1)cn2C` [SG], which “discomfort during dental procedure” value [6] is on record?
**A.** reduced level of discomfort

**Q.** What about the IC50 [2, 9] of the same compound?
**A.** < 5 nM

**Q.** `Cn1cc(C(=O)C(=O)N2CCCC2)c2cc(C(=O)N3CCC(Cc4ccc(F)cc4)CC3)c(Cl)cc21` [SH] was tested. Which IC50 [2, 9] did it give?
**A.** < 5 nM

**Q.** And the post-activity related discomfort [7]?
**A.** reduced level of post-activity related discomfort

**Q.** For `COCn1cc(C(=O)C(=O)N(C)C)c2cc(C(=O)N3C[C@H](C)N(Cc4ccc(F)cc4)C[C@H]3C)c(OC)cc21` [SI], which IC50 [2] is on record?
**A.** < 5 nM

**Q.** And the post-activity related discomfort [7]?
**A.** reduced level of post-activity related discomfort

**Q.** `C[C@@H]1CN(Cc2ccc(F)cc2)[C@@H](C)CN1C(=O)c1cc2c(C(=O)C(=O)N3CCOCC3)cn(C)c2cc1Cl` [SJ] was tested. Which “recovery after Cesarean section” value [8] did it give?
**A.** recovers more rapidly from the procedure

**Q.** What about the IC50 [2, 9] of the same compound?
**A.** < 5 nM

**Q.** For `COc1cc2[nH]cc(C(=O)C(=O)N3CCOCC3)c2cc1C(=O)N1CCC(Cc2ccc(F)cc2)CC1` [SK], which “recovery after Cesarean section” value [8] is on record?
**A.** recovers more rapidly from the procedure

**Q.** And the IC50 [2, 9]?
**A.** < 5 nM

**Q.** Which results are given for `Cc1[nH]c2cc(Cl)c(C(=O)N3CCC(Cc4ccc(F)cc4)CC3)cc2c1C(=O)C(=O)N1CCN(C)CC1` [SL]?
**A.** recovery after Cesarean section [8]: recovers more rapidly from the procedure; IC50 [2, 9]: < 5 nM

**Q.** How did the IC50 [2, 9] turn out when `COc1cc2c(cc1C(=O)N1CCC(=Cc3ccc(F)cc3)CC1)c(C(=O)C(=O)N(C)C)cn2C` [SM] was run?
**A.** < 5 nM

**Q.** And the post-activity related discomfort [7]?
**A.** reduced level of post-activity related discomfort

**Q.** Which results are given for `COc1ccc2c(c1)c(CC(=O)O)c(C)n2C(=O)c1ccc(Cl)cc1` [indomethacin, reference compound]?
**A.** paw withdrawal threshold ([3]; Example 2, oral 10 mg/kg, 2 hours): 180 ± 21 g; paw withdrawal threshold ([3]; Example 2, oral 10 mg/kg, 4 hours): 188 ± 17 g; paw withdrawal threshold ([3]; Example 3, oral 10 mg/kg, 4 hours): 177 ± 16 g; increase of withdrawal latency ([4]; Example 2, 10 mg/kg p.o., 2 hours post-carrageenan): not significant; withdrawal latency ([4]; Example 2, 10 mg/kg p.o., 4 hours): 12.5 ± 1.4 s; withdrawal latency ([4]; Example 3, 10 mg/kg p.o., 2 hours): 13.1 ± 0.9 s; withdrawal latency ([4]; Example 3, 10 mg/kg p.o., 4 hours): 9.3 ± 1.3 s

From patent publication US20080039461A1, “Treatment of pain by inhibition of p38 map kinase” (priority 2002, published 2008)
